Results as given in patent publication US20090186854A1, “S-ALKYLISOTHIOURONIUM DERIVATIVES FOR THE TREATMENT OF INFLAMMATORY DISEASES” (Meditor Pharmaceuticals Ltd., priority 2006, published 2009).

Legend:
healthy male subjects = experiment: Phase I clinical trial, safety of escalating doses; assay type: in vivo, human; settings: 12 healthy male subjects
Experimental: Based on animal toxicological studies and on the accumulated data on human patients, S-ethylisothiouronium diethylphosphate was approved for a Phase I clinical trial. In this study, the pharmacokinetic profile as well as safety of escalating doses (0.6-2.4 mg/kg) of S-ethylisothiouronium diethylphosphate were assessed in 12 healthy male subjects.

rats = experiment: Animal toxicological studies (single or repeated dose, LD50)

In the case of S-ethylisothiouronium diethylphosphate, the Adverse events (healthy male subjects; doses up to 1.2 mg/kg) is reported as “no recorded adverse events”, the Well tolerated dose (healthy male subjects; escalating doses 0.6-2.4 mg/kg) is reported as “up to 1.2 mg/kg” and the LD50 (rats; in rats) is reported as “up to 400 mg/kg”. The “LD50 relative to therapeutically recommended dose” value (rats; rats LD50 vs therapeutically recommended dose of 0.6-1.2 mg/kg) was 300-400 fold.
